Assay [1] has as its system E. coli KC-14. Nature of the assay: Remedial Effect against Mouse Infectious Diseases, E. coli KC-14. Type of assay: in vivo, ddy male mice infected with E. coli KC-14. The arrangement: key: -: ineffective; +: somewhat poorer than enoxacin; ++: comparable to enoxacin; +++: extremely effective. To be noted: E. coli KC-14, 5.1×10^4 CFU/mouse; single oral dose 2 h after inoculation; survival after one week, compared with enoxacin. As to the method:
(§1) 2. Remedial Effect against Mouse Infectious Diseases:
(§2) E. coli KC-14 and P. aeruginosa E-2 each were suspended in 4% mucin, and 0.25 ml of each of the resulting suspensions was inoculated into the abdominal cavity of ddy male mice (weight: about 20 g, 4-week age, 10 mice for one group). The amount of the bacteria inoculated was 5.1×10^4 CFU/mouse for E. coli KC-14 and 7.5×10^4 CFU/mouse for P. aeruginosa E-2. Two hours after the inoculation of the bacteria, the compound to be tested was orally administered once, and the number of the animals living after one week was counted. The results obtained were compared with those using the control enoxacin.

Assay [2] deals with S. aureus. Nature of the assay: Measurement of Minimal Growth Inhibitory Concentration (MIC), agar plate dilution, S. aureus. Type of assay: cell-based. Particulars: Staphylococcus aureus, 10^6 CFU/ml, 37° C., 18 hours, read-out: MIC (1). How it is done: (§3) 1. Measurement of Minimal Growth Inhibitory Concentration (MIC)
(§4) MIC was measured by agar plate dilution assay method in accordance with the standard by Japan Chemical Therapeutics Association (refer to Journal of Japan Chemical Therapeutics Association, 29 (1), 76 to 79 (1981).
(§5) Briefly, a bacteria suspension as incubated in a bouillon medium for measurement of sensitivity, at 37° C. for 18 hours was diluted to 10^6 CFU/ml with the same medium. This was inoculated on an agar medium for measurement of sensitivity, which contained a compound to be tested, with a microplanter and incubated at 37° C. for 18 hours and then the MIC was measured. Enoxacin was used as a control.

The test system of assay [3] is P. aeruginosa E-2. Nature of the assay: Measurement of Minimal Growth Inhibitory Concentration (MIC), agar plate dilution, P. aeruginosa. Type of assay: cell-based. Particulars: Pseudomonas aeruginosa, E2, 10^6 CFU/ml, 37° C., 18 hours, read-out: MIC (3). As to the method:
as §3, §4, §5

Assay [4] deals with E. coli. Nature of the assay: Measurement of Minimal Growth Inhibitory Concentration (MIC), agar plate dilution, E. coli. Type of assay: cell-based. Particulars: Escherichia coli, 10^6 CFU/ml, 37° C., 18 hours, read-out: MIC (2). How it is done:
as §3, §4, §5

The subject of assay [5] is P. aeruginosa E-2. Nature of the assay: Remedial Effect against Mouse Infectious Diseases, P. aeruginosa E-2. To be noted: P. aeruginosa E-2, 7.5×10^4 CFU/mouse; single oral dose 2 h after inoculation; survival after one week, compared with enoxacin. The arrangement: key: -: ineffective; +: somewhat poorer than enoxacin; ++: comparable to enoxacin; +++: extremely effective. Type of assay: in vivo, ddy male mice infected with P. aeruginosa E-2. As to the method:
as §1, §2

≈ marks a conversion by molar mass, not a printed value. Structures can show the parent of a compound that is named as a salt.

Consider `O=C(O)c1c2n(c3nc(N4CCNCC4)c(F)cc3c1=O)CS2` [Example 2, 6-Fluoro-7-(1-piperazinyl)-4-oxo-4H[1,3]-thiazeto[3,2-a]-1,8-naphthyridine-3-carboxylic Acid Hydrochloride], for which, in assay [1], the “Remedial Effect (2)” value was “+”. For the same molecule, the values for the MIC in assay [2], in assay [3] and in assay [4] were 0.39 µg/mL, 0.39 µg/mL and 0.05 µg/mL, respectively. For the same molecule, in assay [5], the “Remedial Effect (3)” value is given as “+”.

On to `CC1Sc2c(C(=O)O)c(=O)c3cnc(N4CCN(C)CC4)nc3n21` (centres unmarked) [Example 7, 1-Methyl-7-(4-methyl-1-piperazinyl)-4-oxo-4H[1,3]thiazeto[3',2'-1,2]pyrido[2,3-d]pyrimidine-3-carboxylic Acid], for which the “Remedial Effect (2)” value in assay [1] is “++”. Besides, the MIC (commonly the least concentration at which growth counts as inhibited) turned out to be 1.56 µg/mL (≈ 4.49 µM) in assay [2], 1.56 µg/mL (≈ 4.49 µM) in assay [3] and 0.1 µg/mL (≈ 0.288 µM) in assay [4]. Further, the “Remedial Effect (3)” value in assay [5] was “-”.

As to `O=C(O)c1c2n(c3nc(N4CCNCC4)c(F)cc3c1=O)C(c1ccc(F)cc1)S2` (centres unmarked) [Example 35, 6-fluoro-1-(4-fluorophenyl)-7-piperazinyl-4-oxo-4H(1,3)thiazeto(3,2-a)-1,8-naphthylidine-3-carboxylic acid], the values for the minimal inhibitory concentration (MIC) in assay [2], in assay [3] and in assay [4] were 0.39 µg/mL (≈ 0.906 µM), 0.39 µg/mL (≈ 0.906 µM) and 0.1 µg/mL (≈ 0.232 µM), respectively.

Consider `CC1Sc2c(C(=O)O)c(=O)c3cc(Cl)c(N4CCN(C)CC4)nc3n21` (centres unmarked) [Example 25, 6-Chloro-1-methyl-7-(4-methyl-1-piperazinyl)-4-oxo-4H[1,3]thiazeto[3,2-a]-1,8-naphthyridine-3-carboxylic Acid Ethanesulfonate], for which the “Remedial Effect (2)” value in assay [1] was “+”. Further, the MIC in assay [2] amounted to 0.39 µg/mL; in assay [3], 0.78 µg/mL; in assay [4], 0.025 µg/mL. Moreover, the “Remedial Effect (3)” value in assay [5] is on record as “-”.

Consider `O=C(O)c1c2n(c3nc(N4CCNCC4)c(F)cc3c1=O)C(c1ccccc1)S2` (centres unmarked) [Example 34, 6-Fluoro-1-phenyl-7-piperazinyl-4-oxo-4H[1,3]thiazeto[3,2-a]-1,8-naphthylidine-3-carboxylic acid hydrochloride], for which the MIC stood at 0.39 µg/mL in assay [2], 0.39 µg/mL in assay [3] and 0.1 µg/mL in assay [4].

With `CC1Sc2c(C(=O)O)c(=O)c3cc(F)c(N4CCN(C)CC4)nc3n21` (centres unmarked) [Example 14, 6-Fluoro-1-methyl-7-(4-methyl-1-piperazinyl)-4-oxo-4H[1,3]thiazeto[3,2-a]-1,8-naphthyridine-3-carboxylic Acid], in assay [1], the “Remedial Effect (2)” value was “+++”. Also, the MIC in assay [2] turned out to be 0.1 µg/mL (≈ 0.274 µM); in assay [3], 0.2 µg/mL (≈ 0.549 µM); in assay [4], 0.0125 µg/mL (≈ 0.0343 µM). Moreover, the “Remedial Effect (3)” value in assay [5] is “+++”.

For `CC1Sc2c(C(=O)O)c(=O)c3cc(F)c(N4CCOCC4)nc3n21` (centres unmarked) [Example 18, 6-Fluoro-1-methyl-7-morpholino-4-oxo-4H[1,3]thiazeto[3,2-a]-1,8-naphthyridine-3-carboxylic Acid], in assay [1], the “Remedial Effect (2)” value is reported as “+”. Besides, the figures for the MIC in assay [2], in assay [3] and in assay [4] were 0.1 µg/mL (≈ 0.285 µM), 0.78 µg/mL (≈ 2.22 µM) and 0.05 µg/mL (≈ 0.142 µM), respectively. The “Remedial Effect (3)” value in assay [5] is reported as “-”.

Take `CN1CCN(c2nc3c(cc2F)c(=O)c(C(=O)O)c2n3CS2)CC1` [Example 3, 6-Fluoro-7-(4-methyl-1-piperazinyl)-4-oxo-4H[1,3]-thiazeto[3,2-a]-1,8-naphthyridine-3-carboxylic Acid Hydrochloride]: the “Remedial Effect (2)” value in assay [1] is “+++”. Moreover, the MIC in assay [2] was 0.39 µg/mL; in assay [3] it was 0.39 µg/mL; in assay [4] it was 0.025 µg/mL. Also, the “Remedial Effect (3)” value in assay [5] is listed as “+++”.

As for `O=C(O)c1c2n(c3nc(N4CCNCC4)c(Cl)cc3c1=O)CS2` [Example 20, 6-Chloro-4-oxo-7-(1-piperazinyl)-4H[1,3]thiazeto[3,2-a]-1,8-naphthyridine-3-carboxylic Acid Hydrochloride], the “Remedial Effect (2)” value in assay [1] is recorded as “+”. Further, the MIC in assay [2] amounted to 0.78 µg/mL; in assay [3], 0.78 µg/mL; in assay [4] it was 0.05 µg/mL. The “Remedial Effect (3)” value in assay [5] is listed as “-”.

Turning to `CC1Sc2c(C(=O)O)c(=O)c3cc(Cl)c(N4CCNCC4)nc3n21` (centres unmarked) [Example 21, 6-Chloro-1-methyl-4-oxo-7-(1-piperazinyl)-4H[1,3]thiazeto[3,2-a]-1,8-naphthyridine-3-carboxylic Acid Hydrochloride], in assay [1], the “Remedial Effect (2)” value is recorded as “+”. Besides, the MIC in assay [2] is 0.39 µg/mL; in assay [3], 0.78 µg/mL; in assay [4] it was 0.025 µg/mL. In addition, in assay [5], the “Remedial Effect (3)” value is given as “+”.

`CC1Sc2c(C(=O)O)c(=O)c3cc(F)c(N4CCNCC4)nc3n21` (centres unmarked) [Example 12, 6-Fluoro-1-methyl-4-oxo-7-(1-piperazinyl)-4H[1,3]thiazeto[3,2-a]-1,8-naphthyridine-3-carboxylic Acid Hydrochloride]: in assay [1], the “Remedial Effect (2)” value is listed as “+++”. The values for the MIC in assay [2], in assay [3] and in assay [4] were 0.1 µg/mL, 0.1 µg/mL and 0.0125 µg/mL, respectively. The “Remedial Effect (3)” value in assay [5] is given as “+++”.

`CCn1cc(C(=O)O)c(=O)c2cc(F)c(N3CCNCC3)nc21` [Enoxacin, enoxacin, reference compound]: the “Remedial Effect (2)” value in assay [1] is “++”. The results for the MIC in assay [2], in assay [3] and in assay [4] were 0.78 µg/mL (≈ 2.44 µM), 0.78 µg/mL (≈ 2.44 µM) and 0.2 µg/mL (≈ 0.624 µM), respectively. Moreover, the “Remedial Effect (3)” value in assay [5] is listed as “++”.

Source of the values: patent US4882328A, “Thiazetidine derivatives” (Nippon Shinyaku Co. Ltd., priority 1987, dated 1989).
